{"source": "patent US11820799B2", "about": "“Malassezia factor with antibiotic activity” (priority 2021, dated 2023)", "system": "S. aureus", "assay": "S. aureus growth curves / MIC with oxacillin in TSB", "type": "cell-based, Staphylococcus aureus", "description": "S. aureus growth curves: S. aureus growth curves were performed on a BioTek Synergy™ H1 monochromator-based multi-mode microplate reader in non-treated flat bottom 96-well plates. S. aureus grown overnight in 5 mL of TSB was subcultured 1:10 in fresh TSB for 1 h. Cells were collected through centrifugation at 5,000×g for 1 min and resuspended in fresh TSB. For 0 μg/mL oxacillin, 4 μg/mL oxacillin, and 16 μg/mL oxacillin TSB was utilized with a starting OD600 of 0.02.", "data": [{"smiles": "Cc1onc(-c2ccccc2)c1C(=O)N[C@@H]1C(=O)N2[C@@H]1SC(C)(C)[C@@H]2C(=O)O", "note": "[oxacillin]", "values": [{"measurement": "growth of CFS-resistant strains with Sa-rel mutations (EVOL-P1 Y1 and IsoA)", "setting": "4 μg/mL oxacillin in TSB", "value": "able to grow robustly"}, {"measurement": "growth of CFS-resistant strains with Sa-rel mutations (EVOL-P1 Y1 and IsoA)", "setting": "16 μg/mL oxacillin in TSB", "value": "able to grow robustly"}, {"measurement": "MIC", "setting": "Staphylococcus aureus, ancestral strain, rich media (tryptic soy broth, TSB)", "value": "4 to 8", "unit": "µg/mL"}]}]}
